Measured values: US7022708B2, “4-piperazinyl benzenesulfonyl indoles and uses thereof” (Roche Palo Alto LLC, priority 2002, dated 2006)

O=S(=O)(c1ccc(N2CCNCC2)cc1)n1ccc2cc(F)ccc21 [Compound 1, 5-Fluoro-1-(4-piperazin-1-yl-benzenesulfonyl)-1H-indole]
melting point: 77 to 78 °C

O=S(=O)(c1ccc(N2CCNCC2)cc1)c1cc2ccccc2[nH]1 [Compound 39, 2-(4-Piperazin-1-yl-benzenesulfonyl)-1H-indole]
melting point: 246 to 248.5 °C
